Tests used:
Test in all cases: KinaseProfiler Assay
[1] = target: T1, EphB4(h) (Homo sapiens, UniProt P54760)
T1 sequence (P54760 16-987): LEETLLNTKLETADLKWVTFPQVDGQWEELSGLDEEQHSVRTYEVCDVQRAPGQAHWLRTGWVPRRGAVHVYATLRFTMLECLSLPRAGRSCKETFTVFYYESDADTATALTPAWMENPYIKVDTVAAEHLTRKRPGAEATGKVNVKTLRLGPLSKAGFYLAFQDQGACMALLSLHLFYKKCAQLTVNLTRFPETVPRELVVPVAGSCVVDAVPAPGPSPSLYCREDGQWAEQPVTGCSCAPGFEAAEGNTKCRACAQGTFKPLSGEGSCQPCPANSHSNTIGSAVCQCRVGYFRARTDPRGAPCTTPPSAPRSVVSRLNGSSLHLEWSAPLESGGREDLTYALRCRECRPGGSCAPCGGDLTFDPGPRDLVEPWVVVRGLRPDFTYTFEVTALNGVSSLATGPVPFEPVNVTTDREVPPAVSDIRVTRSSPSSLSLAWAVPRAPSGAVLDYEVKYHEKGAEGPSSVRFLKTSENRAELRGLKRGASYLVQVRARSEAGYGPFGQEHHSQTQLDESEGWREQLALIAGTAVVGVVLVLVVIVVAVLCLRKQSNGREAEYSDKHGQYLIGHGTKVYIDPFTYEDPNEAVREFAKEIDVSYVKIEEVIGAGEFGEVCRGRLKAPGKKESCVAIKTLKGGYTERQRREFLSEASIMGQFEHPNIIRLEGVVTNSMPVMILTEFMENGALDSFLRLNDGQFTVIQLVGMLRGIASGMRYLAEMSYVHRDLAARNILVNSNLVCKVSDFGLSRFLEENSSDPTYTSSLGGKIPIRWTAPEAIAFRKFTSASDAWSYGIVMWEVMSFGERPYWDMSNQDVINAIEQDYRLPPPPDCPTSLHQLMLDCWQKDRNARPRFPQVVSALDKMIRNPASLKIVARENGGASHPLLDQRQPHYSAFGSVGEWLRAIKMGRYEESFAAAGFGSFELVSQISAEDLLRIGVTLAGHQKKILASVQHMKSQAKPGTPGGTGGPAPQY

[2] = target: T2, Itk(h) (Homo sapiens, UniProt Q08881)
T2 sequence (Q08881 1-620): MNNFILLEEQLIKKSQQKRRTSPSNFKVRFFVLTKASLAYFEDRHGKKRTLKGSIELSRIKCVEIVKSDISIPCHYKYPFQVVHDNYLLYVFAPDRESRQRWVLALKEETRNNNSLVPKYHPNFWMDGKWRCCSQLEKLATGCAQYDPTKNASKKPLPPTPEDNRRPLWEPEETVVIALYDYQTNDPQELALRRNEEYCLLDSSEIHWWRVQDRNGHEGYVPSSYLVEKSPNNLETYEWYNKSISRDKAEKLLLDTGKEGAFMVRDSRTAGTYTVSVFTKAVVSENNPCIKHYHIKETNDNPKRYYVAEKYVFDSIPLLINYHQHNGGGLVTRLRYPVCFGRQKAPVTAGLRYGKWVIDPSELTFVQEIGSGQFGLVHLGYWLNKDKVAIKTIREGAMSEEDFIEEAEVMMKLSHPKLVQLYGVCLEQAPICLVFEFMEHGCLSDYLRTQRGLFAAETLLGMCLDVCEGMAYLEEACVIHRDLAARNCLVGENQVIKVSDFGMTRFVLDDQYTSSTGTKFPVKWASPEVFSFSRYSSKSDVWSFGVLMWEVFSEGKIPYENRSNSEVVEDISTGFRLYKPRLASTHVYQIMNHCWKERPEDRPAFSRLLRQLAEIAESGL

[3] = target: Tie2(h) (Homo sapiens, UniProt Q02763)
Tie2(h), sequence (Q02763 23-1124): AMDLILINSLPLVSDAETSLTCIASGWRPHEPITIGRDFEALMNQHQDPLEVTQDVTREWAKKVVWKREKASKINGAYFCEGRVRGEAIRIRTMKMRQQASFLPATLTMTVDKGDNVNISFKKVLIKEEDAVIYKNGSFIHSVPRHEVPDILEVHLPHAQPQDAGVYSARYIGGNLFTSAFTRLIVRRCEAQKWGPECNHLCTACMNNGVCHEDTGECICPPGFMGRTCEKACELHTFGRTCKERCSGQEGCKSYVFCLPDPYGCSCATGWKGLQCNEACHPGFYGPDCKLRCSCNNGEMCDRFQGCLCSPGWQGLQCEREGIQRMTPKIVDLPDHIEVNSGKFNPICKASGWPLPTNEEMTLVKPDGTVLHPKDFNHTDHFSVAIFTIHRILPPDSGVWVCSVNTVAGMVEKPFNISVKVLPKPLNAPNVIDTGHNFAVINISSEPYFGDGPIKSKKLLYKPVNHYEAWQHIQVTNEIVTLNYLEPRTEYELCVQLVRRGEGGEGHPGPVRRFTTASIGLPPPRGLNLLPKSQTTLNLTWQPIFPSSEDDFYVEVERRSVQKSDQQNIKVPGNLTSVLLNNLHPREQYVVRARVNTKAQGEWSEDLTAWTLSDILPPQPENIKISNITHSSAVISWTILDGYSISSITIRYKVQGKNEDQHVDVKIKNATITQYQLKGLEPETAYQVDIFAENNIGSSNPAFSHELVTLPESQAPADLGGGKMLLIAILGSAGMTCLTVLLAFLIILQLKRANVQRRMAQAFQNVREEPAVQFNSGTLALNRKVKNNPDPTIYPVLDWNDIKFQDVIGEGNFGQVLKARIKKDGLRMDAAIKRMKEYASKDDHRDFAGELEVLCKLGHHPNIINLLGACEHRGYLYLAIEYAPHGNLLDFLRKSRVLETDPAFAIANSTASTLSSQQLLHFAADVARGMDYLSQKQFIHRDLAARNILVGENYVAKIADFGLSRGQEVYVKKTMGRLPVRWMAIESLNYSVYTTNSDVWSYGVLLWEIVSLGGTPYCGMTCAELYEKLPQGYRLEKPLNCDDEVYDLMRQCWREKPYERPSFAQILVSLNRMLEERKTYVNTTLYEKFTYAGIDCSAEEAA

[4] = target: T3, MKK7β(h) (Homo sapiens, UniProt O14733)
T3 sequence (O14733 1-419): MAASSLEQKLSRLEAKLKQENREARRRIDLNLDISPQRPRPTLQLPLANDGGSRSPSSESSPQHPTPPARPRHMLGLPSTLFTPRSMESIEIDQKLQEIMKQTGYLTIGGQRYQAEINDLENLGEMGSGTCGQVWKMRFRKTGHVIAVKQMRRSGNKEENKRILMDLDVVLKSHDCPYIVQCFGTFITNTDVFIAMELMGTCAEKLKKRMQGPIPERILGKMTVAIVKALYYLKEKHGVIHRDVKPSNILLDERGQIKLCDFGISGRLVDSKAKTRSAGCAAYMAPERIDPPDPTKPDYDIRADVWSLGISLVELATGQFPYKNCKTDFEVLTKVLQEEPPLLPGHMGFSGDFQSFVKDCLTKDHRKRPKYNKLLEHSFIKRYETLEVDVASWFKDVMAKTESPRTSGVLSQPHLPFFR

CC(C)CCC(=O)[C@]1(O)C(O)=C(C(=O)C(C)C)C(=O)[C@H]1CCC(C)C [TH2, tetrahydroiso-cohumulone]
kinase inhibition ([1]; 1 μg/ml): 106% of control
kinase inhibition ([1]; 5 μg/ml): 112% of control
kinase inhibition ([1]; 25 μg/ml): 116% of control
kinase inhibition ([1]; 50 μg/ml): 109% of control
kinase inhibition ([1]; 100 μg/ml): 98% of control
kinase inhibition ([2]; 1 μg/ml): 101% of control
kinase inhibition ([2]; 5 μg/ml): 103% of control
kinase inhibition ([2]; 25 μg/ml): 87% of control
kinase inhibition ([2]; 50 μg/ml): 82% of control
kinase inhibition ([2]; 100 μg/ml): 87% of control
kinase inhibition ([3]; 1 μg/ml): 110% of control
kinase inhibition ([3]; 5 μg/ml): 96% of control
kinase inhibition ([3]; 25 μg/ml): 74% of control
kinase inhibition ([3]; 50 μg/ml): 80% of control
kinase inhibition ([3]; 100 μg/ml): 78% of control
kinase inhibition ([4]; 1 μg/ml): 100% of control
kinase inhibition ([4]; 5 μg/ml): 110% of control
kinase inhibition ([4]; 25 μg/ml): 111% of control
kinase inhibition ([4]; 50 μg/ml): 82% of control
kinase inhibition ([4]; 100 μg/ml): 72% of control
